A compilation of properties of binary mixtures (doi:10.1016/j.molliq.2020.113538)

Test: xn = mol fraction of the nth substance listed
Conditions: 101 kPa

CC[n+]1ccn(CCOC)c1.O=S(=O)([O-])C(F)(F)F + CCO
viscosity [mPa·s]
Conditions	x1 = 0.0996	x1 = 0.1999	x1 = 0.2996	x1 = 0.3984	x1 = 0.4991	x1 = 0.603	x1 = 0.699	x1 = 0.797	x1 = 0.899	x1 = 1
288.15 K	2.654	4.54	–	12.13	19.22	28.7	43.6	62.8	84.4	121
293.15 K	2.374	4.01	6.66	10.37	16.43	23.77	–	–	–	92.5
298.15 K	2.139	–	5.84	8.96	13.98	19.98	29.12	–	52.2	72.5
303.15 K	–	–	5.16	7.82	11.97	17.28	24.38	32.04	42.9	–
308.15 K	1.757	2.916	4.59	6.88	10.34	–	20.67	–	–	47.3
313.15 K	1.603	2.644	4.11	6.09	9.01	12.4	17.99	–	28.85	39
318.15 K	1.467	2.409	3.72	5.43	7.9	11.16	15.6	–	23.82	32.59

CCO + CC[n+]1ccn(CCOC)c1.O=S(=O)([O-])C(F)(F)F
x2 = 0
Conditions	viscosity [mPa·s]
288.15 K	1.319
293.15 K	1.195
298.15 K	1.086
303.15 K	0.989
308.15 K	0.903
313.15 K	0.825
318.15 K	0.757
